Reference: publication PMC5363373, “Zirconium tetraazamacrocycle complexes display extraordinary stability and provide a new strategy for zirconium-89-based radiopharmaceutical development” (Chemical Science, 2016)
Several values for one entry are separate records, joined by “and”; a condition that tells them apart may be missing. Equal values may be shown once.

Columns and labels:
[1] = In vitro EDTA challenge study; assay type: physicochemical
Description: In vitro EDTA challenge study. In vitro EDTA challenge study was carried out by adding 10 µL of each 89Zr-labeled complex (70 μCi, 2.59 MBq) to 500 µL of EDTA (10 mM, 50 mM and 100 mM: pH 5 and pH 7) with a 1:100, 1:500, and 1:1000 ratio of ligand/EDTA. The solutions (n=4) were incubated at 37 °C for 7 days in a thermomixer. Samples were analyzed at 30 min, 1 h, 3 h, 6 h, 1 d, 3 d, 5 d and 7 d post administration to EDTA by radio-TLC using Varian ITLC-SA strips and 0.1 M EDTA (pH 5) as the mobile phase and gamma counting using an energy window of 500-1500 keV and standard protocols .

[2] = In vitro metal competition study; assay type: physicochemical; details: for % Intact of 89Zr-complexes: PBS pH 7.4, 37 C
Description: In vitro Metal Competition study. To a solution of metal cations [iron (III) chloride, cobalt (II) chloride, zinc (II) chloride, copper (II) chloride, magnesium (II) chloride, gallium (III) nitrate, gadolinium (III) chloride] (1 mM, 200 µL), was added 89Zr-labeled complex (0.1 mM, 10 µL, 80 μCi, 2.96 MBq) in PBS, pH 7.4. The resulting solutions (n = 3) were incubated at 37 °C for 7 days in a thermomixer. Dissociation of 89Zr from 89Zr-complexes was monitored by radio-TLC at 2 h, 1 d, 4 d and 7 d time point. All studies were performed in triplicate.

[3] = In vitro serum stability (radio-ITLC); assay type: in vitro ADME; details: 37 C, after 7 days
Description: In vitro serum stability. In vitro serum stability was carried out by adding 10 µL of each 89Zr-labeled complex (70 μCi, 2.59 MBq) to 500 µL of human serum. The solutions (n=4) were incubated at 37 °C for 7 days and were analyzed daily for 1 week by radio -TLC using Varian ITLC-SA strips and 0.1 M EDTA (pH 5) as the mobile phase and gamma counting using an energy window of 500-1500 keV and standard protocols . Serum samples were also analyzed after 7 days by size exclusion chromatography (SEC) using a Superdex 200 10/300 GLTM column (GE Healthcare Life Sciences, Piscataway, NJ) and phosphate buffered saline (PBS) as eluent with a flow rate of 0.5 mL/min.
Figure S30. Radio-ITLC of 89Zr-DOTA solution in human serum at 37 °C after 0 h (a) and 7 days (b). […]

Biodistribution studies = assay type: in vivo, female NIH Swiss mice
Description: Biodistribution Studies. Biodistribution studies were conducted using a modified literature procedure. 7 Briefly, female NIH Swiss mice (6-8 wk old, n=6) were injected with each 89Zr-labeled complex (0.55 MBq (15 μCi)/mouse) via the tail vein, and sacrificed at 2, 4, 24, 48, 72 h post-injection. Organs and tissues of interest were excised, weighted, and counted on a Perkin Elmer 2480 Wizard® gamma counter (Waltham, MA). The percent injected dose per gram (%ID/g) and percent injected dose per organ (%ID/organ) were calculated by comparison to a weighed, counted standard for each group (Tables S9 – S12).
Statistical Methods. All of the data are presented as mean±SD or mean (95% Confidence Interval). For statistical classification a student’s t test (two-tailed, unpaired) was performed using GraphPad Prism (San Diego, CA). Any p<0.05 was considered significant.

[4] = mice, intravenous, 72 h post-injection

SMILES: O=C1CN2CCN3CCN4CCN(CC2)CC(=O)[O][89Zr]([O]1)([O]C(=O)C3)[O]C(=O)C4 [89Zr-DOTA]
- Transchelation in EDTA challenge ([1]; 100-, 500-, and 1000-fold excess of EDTA at pH 5 or pH 7 over 7 days): did not undergo transchelation
- % Intact of 89Zr-complexes ([1]; EDTA 100-fold, pH 5.0, 37 C, 1 h): 100%
- % Intact of 89Zr-complexes ([1]; EDTA 100-fold, pH 5.0, 37 C, 1 d): 100%
- % Intact of 89Zr-complexes ([1]; EDTA 100-fold, pH 5.0, 37 C, 3 d): 100%
- % Intact of 89Zr-complexes ([1]; EDTA 100-fold, pH 5.0, 37 C, 5 d): 100%
- % Intact of 89Zr-complexes ([1]; EDTA 100-fold, pH 5.0, 37 C, 7 d): 100%
- % Intact of 89Zr-complexes ([1]; EDTA 100-fold, pH 7.0, 37 C, 1 h): 100%
- % Intact of 89Zr-complexes ([1]; EDTA 100-fold, pH 7.0, 37 C, 1 d): 100%
- % Intact of 89Zr-complexes ([1]; EDTA 100-fold, pH 7.0, 37 C, 3 d): 100%
- % Intact of 89Zr-complexes ([1]; EDTA 100-fold, pH 7.0, 37 C, 5 d): 100%
- % Intact of 89Zr-complexes ([1]; EDTA 100-fold, pH 7.0, 37 C, 7 d): 100%
- % Intact of 89Zr-complexes ([1]; EDTA 500-fold, pH 5.0, 37 C, 1 h): 100%
- % Intact of 89Zr-complexes ([1]; EDTA 500-fold, pH 5.0, 37 C, 1 d): 100%
- % Intact of 89Zr-complexes ([1]; EDTA 500-fold, pH 5.0, 37 C, 3 d): 100%
- % Intact of 89Zr-complexes ([1]; EDTA 500-fold, pH 5.0, 37 C, 5 d): 100%
- % Intact of 89Zr-complexes ([1]; EDTA 500-fold, pH 5.0, 37 C, 7 d): 100%
- % Intact of 89Zr-complexes ([1]; EDTA 500-fold, pH 7.0, 37 C, 1 h): 100%
- % Intact of 89Zr-complexes ([1]; EDTA 500-fold, pH 7.0, 37 C, 1 d): 100%
- % Intact of 89Zr-complexes ([1]; EDTA 500-fold, pH 7.0, 37 C, 3 d): 100%
- % Intact of 89Zr-complexes ([1]; EDTA 500-fold, pH 7.0, 37 C, 5 d): 100%
- % Intact of 89Zr-complexes ([1]; EDTA 500-fold, pH 7.0, 37 C, 7 d): 100%
- % Intact of 89Zr-complexes ([1]; EDTA 1000-fold, pH 5.0, 37 C, 1 h): 100%
- % Intact of 89Zr-complexes ([1]; EDTA 1000-fold, pH 5.0, 37 C, 1 d): 100%
- % Intact of 89Zr-complexes ([1]; EDTA 1000-fold, pH 5.0, 37 C, 3 d): 100%
- % Intact of 89Zr-complexes ([1]; EDTA 1000-fold, pH 5.0, 37 C, 5 d): 100%
- % Intact of 89Zr-complexes ([1]; EDTA 1000-fold, pH 5.0, 37 C, 7 d): 100%
- % Intact of 89Zr-complexes ([1]; EDTA 1000-fold, pH 7.0, 37 C, 1 h): 100%
- % Intact of 89Zr-complexes ([1]; EDTA 1000-fold, pH 7.0, 37 C, 1 d): 100%
- % Intact of 89Zr-complexes ([1]; EDTA 1000-fold, pH 7.0, 37 C, 3 d): 100%
- % Intact of 89Zr-complexes ([1]; EDTA 1000-fold, pH 7.0, 37 C, 5 d): 100%
- % Intact of 89Zr-complexes ([1]; EDTA 1000-fold, pH 7.0, 37 C, 7 d): 100%
- % Intact of 89Zr-complexes ([2]; Co2+, 2 h): 100%
- % Intact of 89Zr-complexes ([2]; Co2+, 1 d): 100%
- % Intact of 89Zr-complexes ([2]; Co2+, 4 d): 100%
- % Intact of 89Zr-complexes ([2]; Co2+, 7 d): 100%
- % Intact of 89Zr-complexes ([2]; Cu2+, 2 h): 100%
- % Intact of 89Zr-complexes ([2]; Cu2+, 1 d): 100%
- % Intact of 89Zr-complexes ([2]; Cu2+, 4 d): 100%
- % Intact of 89Zr-complexes ([2]; Cu2+, 7 d): 100%
- % Intact of 89Zr-complexes ([2]; Fe3+, 2 h): 100%
- % Intact of 89Zr-complexes ([2]; Fe3+, 1 d): 100%
- % Intact of 89Zr-complexes ([2]; Fe3+, 4 d): 100%
- % Intact of 89Zr-complexes ([2]; Fe3+, 7 d): 100%
- % Intact of 89Zr-complexes ([2]; Ga3+, 2 h): 100%
- % Intact of 89Zr-complexes ([2]; Ga3+, 1 d): 100%
- % Intact of 89Zr-complexes ([2]; Ga3+, 4 d): 100%
- % Intact of 89Zr-complexes ([2]; Ga3+, 7 d): 100%
- % Intact of 89Zr-complexes ([2]; Gd3+, 2 h): 100%
- % Intact of 89Zr-complexes ([2]; Gd3+, 1 d): 100%
- % Intact of 89Zr-complexes ([2]; Gd3+, 4 d): 100%
- % Intact of 89Zr-complexes ([2]; Gd3+, 7 d): 100%
- % Intact of 89Zr-complexes ([2]; Mg2+, 2 h): 100%
- % Intact of 89Zr-complexes ([2]; Mg2+, 1 d): 100%
- % Intact of 89Zr-complexes ([2]; Mg2+, 4 d): 100%
- % Intact of 89Zr-complexes ([2]; Mg2+, 7 d): 100%
- % Intact of 89Zr-complexes ([2]; Zn2+, 2 h): 100%
- % Intact of 89Zr-complexes ([2]; Zn2+, 1 d): 100%
- % Intact of 89Zr-complexes ([2]; Zn2+, 4 d): 100%
- % Intact of 89Zr-complexes ([2]; Zn2+, 7 d): 100%
- Demetallation in metal competition ([2]; excess metal salts in aqueous buffer, over the 7 day experiment): no demetallation
- Radio-ITLC peak of complex in human serum [3]: 100%
- Blood (Biodistribution studies; 24 h, current study): 0.001±0.000 % ID/g
- Bone (Biodistribution studies; 24 h, current study): 0.036±0.008 % ID/g
- Heart (Biodistribution studies; 24 h, current study): 0.016±0.004 % ID/g
- Kidney (Biodistribution studies; 24 h, current study): 0.317±0.054 % ID/g
- Liver (Biodistribution studies; 24 h, current study): 0.068±0.004 % ID/g
- Muscle (Biodistribution studies; 24 h, current study): 0.004±0.001 % ID/g
- Radioactivity in blood (Biodistribution studies; [4]): 0.0003 ± 0.001 % ID per g and 0.0003 ± 0.0008 % ID per g
- Radioactivity in bone (Biodistribution studies; [4]): 0.025 ± 0.009 % ID per g
- Radioactivity in kidney (Biodistribution studies; [4]): 0.078 ± 0.009 % ID per g
- Radioactivity in liver (Biodistribution studies; [4]): 0.021 ± 0.002 % ID per g
- Radioactivity retention in bone tissue over time (Biodistribution studies; mice, time points up to 72 h): remained low
